Experimental data from patent publication US20240415845A1, “Compositions of Iboga Alkaloids and Methods of Treatment” (priority 2022, published 2024).
“And” between values parts separate entries of the source, which are not always exact repeats. Identical values can stand only once.

Experiments:
Format in all cases: in vivo, human
[1] = tested on: special operations veterans with combat and/or blast exposure; assay: Clinician-Administered PTSD Scale for DSM-5 (CAPS-5)
From the text: The pre-specified primary outcome was change in the World Health Organization Disability Assessment Schedule 2.0 (WHODAS) (Gold L. H. et al., J. Am. Acad. Psychiatry Law 42, 9 (2014)) from baseline to post-treatment, with change from baseline to the one-month follow-up a secondary outcome. Additional pre-specified secondary outcomes included post-treatment changes on the Clinician Administered PTSD Scale (CAPS-5; Weathers, F. W. et al., Psychol. Assess., 30, 383-395 (2018)), Montgomery-Åsberg Depression Rating Scale (MADRS; Montgomery, S. A., Br. J. Psychiatry J. Ment. Sci., 134, 382-389 (1979)) and the Hamilton-Anxiety Rating Scale (HAM-A; Bruss, G. S., et al., Psychiatry Res., 53, 191-202 (1994)). […] An additional dose of magnesium was administered approximately 12 hours later. To assess the significance of post-treatment changes, linear mixed effects (LME) models were used for each outcome measure. False Discovery Rate (FDR; Benjamini, Y. et al., J. R. Stat. Soc. Ser. B Methodol., 57, 289-300 (1995)) was applied to correct for multiple comparisons.
To further assess changes in comorbid psychiatric symptoms identified by the models, mean percent reduction, response rate, and remission rate according to the CAPS-5, MADRS and HAM-A (Table 1) were calculated. Response on the CAPS-5, MADRS, and HAM-A was defined as a reduction of at least 10 points (Mitchell, J. M. et al., Nat. Med. 27, 1025-1033(2021)), 50% (Leucht, S. et al., J. Affect. Disord. 210, 287-293 (2017)), and 50% (McIntyre, A. et al., Depress. Anxiety 24, 487-494 (2007)), respectively; remission as loss of diagnosis and a total score below 12 (Mitchell, J. M. et al. supra), <8 (Leucht, S. et al. supra), and <8(McIntyre, A. et al., supra), respectively. One participant's baseline scores met criteria for remission in all three scales and so were excluded from the calculation of response and remission rates, leaving 29 participants in these specific analyses.
With subjects in the fasting state, an intravenous infusion of 1 gram of magnesium sulfate was administered 1-2 hours prior to treatment. […] Medical staff (MD, RN, or EMT) were onsite at a ratio of at least 1 staff per 2 patients throughout treatment for monitoring and management, but no specific coaching or psychological support was provided during treatment.
Clinician administered scales included CAPS-5 (Clinician-administered PTSD Scale for DSM-5), which is a gold standard assessment of PTSD symptom severity; MADRS (Montgomery-Asberg Depression Rating Scale), a measure for depressive symptom severity: and Hamilton-Anxiety Rating Scale (HAM-A) (Shear, M. K. et al., Depress. Anxiety 13, 166-178 (2001)) a measure for anxiety symptom severity: SCID-5 (Structured Clinical Interview for DSM-5) Overview for a historical and environmental context of symptom presentation: MINI DSM-5 (Mini International Neuropsychiatric Interview from DSM-5) for a structured psychodiagnostics assessment: BAT-L (Boston Assessment of TBI-Lifetime) for a lifetime history of TBI and blast exposure: and Ohio State University TBI Identification Method (Short Form) for a lifetime history of TBI. MADRS testing provides an indication of depressive symptoms, CAPS-5 provides an indication of PTSD and SIGH-A provides an indication of anxiety. Collectively these overlap to provide indication of mood, concentration, sleep and tension.
For the CAPS-5, the test version with a […] structured interview of PTSD symptoms over the past week was used, using a 0 (“Absent”) to 4 (“Extreme/Incapacitating”) scale, with possible total scores ranging from 0) to 80. The score range 23 to 34 is considered moderate PTSD while a higher score represents severe PTSD (Weathers, F. W. et al., Psychol. Assess. 30, 383-395 (2018)).

[2] = tested on: special operations veterans with combat and/or blast exposure; assay: Moral Injury Symptom Scale (MISS)
From the text: A Moral Injury Symptom Scale (MISS) was also used to assess the subjects before and one month after treatment. Moral injury is when one acts in a manner or witnesses behaviors that go against an individual's values and moral beliefs. This may include betrayal by leadership or peers with adverse outcomes. Symptoms include guilt, remorse, shame, disgust, anger, inability to forgive oneself, engaging in self-sabotaging behaviors, such as feeling undeserving, affecting work and relationships, and questioning spirituality. The MISS is a multidimensional measure to assess the severity of moral injury symptoms. Possible score range is 45-450, with higher scores indicating more severe moral injury (Koenig et al., J. Relig Health, 57:249-265 (2018)).

[3] = tested on: special operations veterans with combat and/or blast exposure; assay: Self-reported alcohol consumption and intoxication; settings: one month following treatment
Method: Alcohol consumption in the enrolled subjects was also evaluated. At baseline, 11 of the 30 enrolled subjects reported drinking at least four days per week and 12 of the 30 enrolled subjects reported drinking at least four days per week over the last month. Some of the subjects reported drinking daily. One month following treatment, none (zero) of the enrolled subjects reported drinking more than three times per week. 28 of the 30 enrolled subjects reported drinking less than twice per week over the past month.
Intoxication by alcohol was also evaluated in the enrolled subjects. At baseline, 9 of the 30 enrolled subjects reported being intoxicated more than once over the last 30 days, with some subjects reporting being intoxicated for 25 of the last 30 days. One month following treatment, one participant reported four episodes of intoxication after reporting 23 episodes at baseline.

[4] = 1-mo. post, only participants meeting relevant MINI diagnostic criteria
[5] = 1-mo. post, only participants with mild TBI
[6] = 1-wk. post, only participants meeting relevant MINI diagnostic criteria
[7] = 1-wk. post, only participants with mild TBI

## CCC1CC2CC3c4[nH]c5ccc(OC)cc5c4CCN(C2)C13 (stereo not shown) [ibogaine, Ibogaine]
[1]; [4]
  CAPS-5 % Reduction vs Baseline: 86% ± 19%
  CAPS-5 Remission Rate: 83%
  CAPS-5 Response Rate: 100%
[1]; 1-mo. post, only participants meeting relevant MINI diagnostic criteria at baseline (N 23), baseline 35.7 ± 11.0
  CAPS-5 score: 6.0
[1]; [5]
  CAPS-5 % Reduction vs Baseline: 88% ± 17%
  CAPS-5 Remission Rate: 85%
  CAPS-5 Response Rate: 100%
[1]; 1-mo. post, only participants with mild TBI (N 28), baseline 31.7 ± 13.0
  CAPS-5 score: 4.8
[1]; 1-wk post, only participants meeting relevant MINI diagnostic criteria at baseline (N 23), baseline 35.7 ± 11.0
  CAPS-5 score: 4.4
[1]; [6]
  CAPS-5 % Reduction vs Baseline: 87% ± 17%
  CAPS-5 Remission Rate: 83%
  CAPS-5 Response Rate: 96%
[1]; [7]
  CAPS-5 % Reduction vs Baseline: 89% ± 14%
  CAPS-5 Remission Rate: 89%
  CAPS-5 Response Rate: 96%
[1]; 1-wk. post, only participants with mild TBI (N 28), baseline 31.7 ± 13.0
  CAPS-5 score: 3.6
[1]; baseline vs 1-mo. post, only participants meeting relevant MINI diagnostic criteria (N 23)
  CAPS-5, effect size D: 2.98
[1]; baseline vs 1-mo. post, only participants with mild TBI (N 28)
  CAPS-5, effect size D: 2.49
[1]; baseline vs 1-wk post, only participants with mild TBI (N 28)
  CAPS-5, effect size D: 2.28
[1]; baseline vs 1-wk. post, only participants meeting relevant MINI diagnostic criteria (N 23)
  CAPS-5, effect size D: 2.75
[1]; baseline vs one-month post, all participants
  CAPS-5, effect size D: 2.54
[1]; baseline vs one-week post, all participants
  CAPS-5, effect size D: 2.30
[1]; one month following treatment (FIG. 3B), mild = 12-22
  subjects lower than mild PTSD symptom severity (CAPS-5): 80%
[1]; one-month post, 29 participants, remission = loss of diagnosis and total score below 12
  CAPS-5 Remission Rate: 86%
[1]; one-month post, 29 participants, response = reduction of at least 10 points
  CAPS-5 Response Rate: 100%
[1]; one-month post, all participants, baseline 31.7 ± 12.5, mean ± SD
  CAPS-5 score: 4.8
[1]; one-month post, all participants, mean ± SD
  CAPS-5 % Reduction vs Baseline: 88% and 88% ± 17%
[1]; one-week post, 29 participants, remission = loss of diagnosis and total score below 12
  CAPS-5 Remission Rate: 86%
[1]; one-week post, 29 participants, response = reduction of at least 10 points
  CAPS-5 Response Rate: 97%
[1]; one-week post, all participants, baseline 31.7 ± 12.5, mean ± SD
  CAPS-5 score: 3.9
[1]; one-week post, all participants, mean ± SD
  CAPS-5 % Reduction vs Baseline: 88% ± 15%
[2]; FIG. 6B
  subjects showing a reduction in moral injury score: 88%
[2]; one month after treatment vs baseline
  MISS effect size: 1.14
[2]; one month after treatment, baseline about 220, score range 45-450
  average moral injury symptoms score (MISS): about 140
[3]; 23 episodes at baseline
  episodes of intoxication reported by one participant: four
[3]; 30 subjects, at baseline 11 of 30 drank at least four days per week
  enrolled subjects reporting drinking more than three times per week: zero
[3]; of the 30 enrolled subjects
  enrolled subjects reporting drinking less than twice per week over the past month: 28
